In patent publication US20140220640A1, “METHOD FOR MANUFACTURING DETOXIFICATED LIGNOCELLULOSIC BIOMASS HYDROLYSATE WITH DECREASED OR ELIMINATED TOXICITY AND METHOD FOR MANUFACTURING ORGANIC OR AND BIOFUEL USING THE SAME” (KOREA INSTITUTE OF SCIENCE AND TECHNOLOGY, priority 2011, published 2014):

Legend:
[1] = tested on: Clostridium tyrobutyricum (ATCC 25755); assay: Growth of Clostridium tyrobutyricum in batch culture (absorbance at 600 nm); type: cell-based; conditions: 1 g/L phenolic compound in medium, vs control with no phenolic compound; FIG. 3
Experimental: (§1) In order to investigate the effect of phenolic compounds on the growth of microorganisms and production of butanol or butyric acid by the microorganisms, microorganisms were cultured in a medium containing phenolic compounds and the cell weight of the microorganisms and the concentration of produced butanol and butyric acid was measured.
(§2) A butyric acid fermentation medium included 20 g of glucose, 5 g of yeast extract, 0.2 g of magnesium sulfate, 0.01 g of manganese sulfate, 0.01 g of iron sulfate, 0.01 g of sodium chloride, 0.5 g of monopotassium phosphate (KH2PO4), 0.5 g of dipotassium phosphate (K2HPO4) and 2 g of ammonium acetate per liter. And, a butanol fermentation medium included 20 g of glucose, 5 g of yeast extract, 0.2 g of magnesium sulfate, 0.01 g of manganese sulfate, 0.01 g of iron sulfate, 0.01 g of sodium chloride, 0.5 g of monopotassium phosphate (KH2PO4), 0.5 g of dipotassium phosphate (K2HPO4) and 2 g of ammonium acetate per liter. Each medium was flushed with argon gas and sterilized at 121° C. for 15 minutes before measurement. Initial pH was adjusted to 6.8 with 1 N potassium hydroxide (KOH).
p-Coumaric acid, ferulic acid, syringaldehyde and vanillic acid, 1 g/L each, were added to the medium as phenolic compounds. A medium with no phenolic compound added was used as control.
Butyric acid fermentation was conducted using Clostridium tyrobutyricum (American Type Culture Collection, ATCC 25755) after culturing for two passages. Butanol fermentation was conducted using Clostridium acetobutylicum (ATCC 824) and Clostridium beijerinckii (National Collection of Industrial, Marine and Food Bacteria, NCIMB 8052) after culturing for two passages.
Butyric acid and butanol fermentation was carried out by adding the culture fluid to a batch fermenter. Batch culture was performed by adding 20 mL of the medium to a 60-mL serum bottle, adding the culture fluid with an amount of 5% based on the medium and then incubating in a shaking incubator at 37° C. and 150 rpm.
The growth of the microorganisms was evaluated by measuring absorbance at 600 nm using a spectrophotometer (UVmini-1240, Shimadzu).
As the surfactant, Tween 80 (BioXtra, Sigma, viscous liquid) was used. The phenolic compound and Tween 80 were added at an amount of 1 g/L to the medium of Example 1. A medium with no phenolic compound or Tween 80 added was used as control.
The growth of Clostridium tyrobutyricum (ATCC 25755) and production of butyric acid thereby in the medium containing the phenolic compounds, 1 g/L each, and 1 g/L of Tween 80 were measured.
Other experimental conditions were the same as in Example 1.
1 g/L of lignin (alkali, Sigma Aldrich 471003) was added to the medium of Example 1 instead of the phenolic compounds. […]

[2] = tested on: Clostridium tyrobutyricum (ATCC 25755); assay: Production of butyric acid by Clostridium tyrobutyricum (gas chromatography); type: cell-based; conditions: 1 g/L phenolic compound plus 1 g/L Tween 80; FIG. 4
Experimental: as §1
as §2, with “Each medium was flushed with argon gas and sterilized at 121° C. for 15 minutes before measurement. Initial pH was adjusted to 6.8 with 1 N potassium hydroxide (KOH).” left out
The concentration of butyric acid and butanol was analyzed using a gas chromatography system (Agilent Technologies 6890N Network GC system) equipped with a flame ionization detector. […]
The growth of Clostridium tyrobutyricum (ATCC 25755) and production of butyric acid thereby in the medium containing the phenolic compounds, 1 g/L each, and 1 g/L of Tween 80 were measured. […]

COc1cc(/C=C/C(=O)O)ccc1O [ferulic acid]
inhibiting the growth of the microorganism [1]: 74%
detoxifying effect of added surfactant on butyric acid production [2]: higher detoxifying effect

O=C(O)/C=C/c1ccc(O)cc1 [p-coumaric acid, p-Coumaric acid]
inhibiting the growth of the microorganism [1]: 99%
detoxifying effect of added surfactant on butyric acid production [2]: higher detoxifying effect

COc1cc(C=O)cc(OC)c1O [syringaldehyde]
inhibiting the growth of the microorganism [1]: 30%

COc1cc(C(=O)O)ccc1O [vanillic acid]
inhibiting the growth of the microorganism [1]: 48%
